{"source": "patent US20080124368A1", "about": "“Composition” (priority 2004, published 2008)", "tested_on": "human immunodeficiency virus (HIV)", "assay": "HIV viral assay (carried out by Imquest Bioscience)", "format": "cell-based", "procedure": "Antiviral compounds may be incorporated into polymers, such as hydrophilic polyurethanes or silicone, for certain applications where antiviral activities are needed.\nThe compound (0.5 gms) was protonated using dilute hydrochloric acid to a pH of 4 to a total volume of 30 ml. To 5 gms of this solution was added 5 gms of polyvinyl sulfonate (Aldrich, a 25 wt % aqueous solution). A white precipitate of the adduct immediately formed and remained colloidal without settling. This was used as such for an assay carried out by Imquest Bioscience, MD, and high dilutions were studied. […] These and other compounds could be incorporated into the polyurethane plastics of this invention for their slow delivery of antivirals; other viruses could be potentially also be deactivated.", "data": [{"smiles": "c1c[nH]c(-c2ncc[nH]2)n1", "note": "[bimidazole, biimidazole]", "values": [{"measurement": "antiviral efficacy (in words)", "result": "potent antiviral"}]}]}
